Data from patent US20230059087A1, “CANNABIDIOL DERIVATIVES, PREPARATION METHOD THEREOF AND USE THEREOF” (CHENGDU BAIYU PHARMACEUTICAL CO., LTD., priority 2020, published 2023).

Assays:
in vivo = details: SD, rat, po, 50 mg/kg
Description: (§1) Healthy adult SD rats (n=3 per group) were fasted overnight (free access to water), and then were administrated the drugs by intragastric administration (i.g.) (50 mg/kg). 0.1 mL of blood was collected from the jugular venous plexus of the rats at 15 minutes, 30 minutes, 1 hour, 2 hours, 4 hours, 6 hours, 8 hours, 24 hours after administration. All blood samples were anticoagulated with K2EDTA, then centrifuged at 3500 rpm at 5° C. for 10 minutes to separate plasma, and stored at −20° C. for test. Parent drug concentration in plasma was determined by LC/MS/MS method.

[1] = Pharmacokinetics in rats after intragastric administration; details: SD, rat, plasma, po, 50 mg/kg
Description: as §1

[2H]C([2H])([2H])C1=C[C@H](c2c(O)cc(CCC)cc2O)C(C(=C)C)CC1 (stereo in doubt) [Example 3, 5′-(methyl-d3)-2′-(prop-1-en-2-yl)-4-propyl-1′,2′,3′,4′-tetrahydro-[1,1′-biphenyl]-2,6-diol]
AUC(0-inf) (in vivo): 4480 ng·h/mL
AUC(0-t) (in vivo): 4230 ng·h/mL
Cmax (in vivo): 795 ng/mL
Tmax (in vivo): 2.1 h
half-life (in vivo): 294 min

C=C(C)[C@@H]1CCC(C)=C[C@H]1c1c(O)cc(CCCCC)cc1O [CBD, cannabidiol]
AUC(0-inf) [1]: 4500 ng·h/mL
AUC(0-t) [1]: 4460 ng·h/mL
Cmax [1]: 784 ng/mL
Tmax [1]: 2 h
half-life [1]: 288 min

[2H]C([2H])=C([C@@H]1CCC(C([2H])([2H])[2H])=C[C@H]1c1c(O)cc(CCCCC)cc1O)C([2H])([2H])[2H] [Example 7, (1′R,2′R)-5′-(methyl-d3)-4-pentyl-2′-(prop-1-en-2-yl-d5)-1′,2′,3′,4′-tetrahydro-[1,1′-biphenyl]-2,6-diol]
AUC(0-inf) [1]: 6290 ng·h/mL
AUC(0-t) [1]: 5830 ng·h/mL
Cmax [1]: 901 ng/mL
Tmax [1]: 2.2 h
half-life [1]: 390 min

[2H]C([2H])([2H])C1=C[C@@H](c2c(O)cc(CCCCCCC)cc2O)[C@H](C(=C)C)CC1 [Example 9, (1′R,2′R)-4-heptyl-5′-(methyl-d3)-2′-(prop-1-en-2-yl)-1′,2′,3′,4′-tetrahydro-[1,1′-biphenyl]-2,6-diol]
AUC(0-inf) [1]: 6480 ng·h/mL
AUC(0-t) [1]: 6220 ng·h/mL
Cmax [1]: 823 ng/mL
Tmax [1]: 2 h
half-life [1]: 474 min

[2H]C([2H])([2H])C1=C[C@@H](c2c(O)cc(CCCCC)cc2O)[C@H](C(=C)C)CC1([2H])[2H] [Example 13, (1′R,2′R)-5′-(methyl-d3)-4-pentyl-2′-(prop-1-en-2-yl)-1′,2′,3′,4′-tetrahydro-[1,1′-biphenyl]-4′,4′-d2-2,6-diol]
AUC(0-inf) [1]: 6180 ng·h/mL
AUC(0-t) [1]: 5980 ng·h/mL
Cmax [1]: 871 ng/mL
Tmax [1]: 2 h
half-life [1]: 360 min

[2H]C([2H])(O)C1=C[C@@H](c2c(O)cc(CCCCC)cc2O)[C@H](C(=C)C)CC1([2H])[2H] [Example 16]
AUC(0-inf) [1]: 5630 ng·h/mL
AUC(0-t) [1]: 5490 ng·h/mL
Cmax [1]: 860 ng/mL
Tmax [1]: 1.5 h
half-life [1]: 348 min

[2H]C([2H])([2H])C1=C[C@H](c2c(O)cc(CCCCC)c(C(=O)O)c2O)[C@@H](C(=C)C)CC1 [Example 23]
AUC(0-inf) [1]: 8230 ng·h/mL
AUC(0-t) [1]: 6980 ng·h/mL
Cmax [1]: 977 ng/mL
Tmax [1]: 1.75 h
half-life [1]: 390 min
